# Where two headings read alike, the source gives them in different places.
# Experiments:
# [1] = Procedure, shortened: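 LCO probes (3 μM) were added to serial two-fold dilutions of carbohydrate suspensions in dH2O, with excitation scanned 300–500 nm and emission at 545 nm. Detection was a reproducible λmax and/or RFU change versus no-carbohydrate control. RFU was regressed linearly against concentration at the λmax or the lowest-background excitation.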
# [2] = for RFU change (Correlation analysis): probe-specific excitation λ, emission 545 nm; for Gradient Parameters (gradient of regression line) / Linear relationship / Quality of Gradient: linear regression
# Procedure, shortened: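 LCO probes at 3 μM mixed with serial twofold carbohydrate dilutions in dH2O (10–0.039 or 5–0.019 mg/ml, depending on carbohydrate). Excitation scanned 300–500 nm, emission read at 545 nm; detection defined as reproducible shift in λmax and/or RFU relative to negative control, with linear regression of RFU against concentration.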
# [3] = for RFU change (Correlation analysis) / RFU change (Signal deviation with increasing [Carbohydrate]) / λmax change: 3 μM probe; for RFU change (Correlation analysis): probe-specific excitation λ, emission 545 nm; for RFU change (Signal deviation with increasing [Carbohydrate]) / λmax change: spectral analysis, Excitation 300-500, Emission 545; for carbohydrate can be detected and/or differentiated by the LCO: conclusion from change in signal magnitude and/or shift in λmax; for Gradient Parameters (gradient of regression line) / Linear relationship / Quality of Gradient: linear regression
# Procedure, shortened: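 Each LCO probe at 3 μM was added to two-fold serial dilutions of carbohydrate in dH2O (10–0.039 mg/ml for β-1,3-glucan, cellulose, chitin; 5–0.019 mg/ml for the others), run in triplicate. Excitation spectra were scanned 300–500 nm with emission at 545 nm. Detection was a reproducible λmax and/or RFU shift versus negative control, with linear regression of RFU against concentration.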
# [4] = remark: listed apart in the source
# Procedure, shortened: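 3 μM of each LCO probe was added to serial two-fold carbohydrate dilutions in water (10–0.039 or 5–0.019 mg/ml). Excitation spectra were scanned 300–500 nm with emission at 545 nm, in triplicate. Detection was defined as a reproducible shift in λmax and/or RFU versus negative control, with linear regression of RFU against concentration.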
# [5] = remark: listed apart in the source
# Procedure, shortened: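 LCO probes at 3 μM mixed with serial two-fold carbohydrate dilutions in water (10–0.039 or 5–0.019 mg/ml), run in triplicate. Excitation scanned 300–500 nm with emission at 545 nm; detection based on reproducible λmax or RFU shift against the no-carbohydrate control, with linear regression of RFU on concentration.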
# [6] = for RFU change (Correlation analysis): probe-specific excitation λ, emission 545 nm
# Procedure, shortened: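 LCO probes at 3 μM mixed with serial two-fold dilutions of carbohydrate in dH2O (10–0.039 or 5–0.019 mg/ml, depending on carbohydrate), in triplicate. Excitation scanned 300–500 nm or fixed per probe (λmax or lowest background), emission at 545 nm. Detection taken as reproducible λmax/RFU shift vs no-carbohydrate control; RFU regressed linearly on concentration.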
# [7] = sodium alginate concentration vs RFU, linear regression
# [8] = Glycogen 5-0.019 mg/ml, 3 μM probe, spectral analysis, Excitation 300-500, Emission 545
# [9] = β-1,3-glucan concentration vs RFU
# [10] = Chondroitin Sulfate A 5-0.019 mg/ml, 3 μM probe, spectral analysis, Excitation 300-500, Emission 545
# [11] = Chondroitin Sulfate A concentration vs RFU, linear regression
# [12] = glucose concentration vs RFU, linear regression
# [13] = Cellulobiose 5-0.019 mg/ml, 3 μM probe, spectral analysis, Excitation 300-500, Emission 545
# [14] = amylose concentration vs RFU, linear regression
# [15] = cellulobiose concentration vs RFU, linear regression
compound,measurement,setting,value
"Cl.Cl.O=C(Cc1cc(-c2cccs2)sc1-c1ccc(-c2sc(-c3cccs3)cc2CC(=O)NCCc2c[nH]cn2)s1)NCCc1c[nH]cn1 [pHTA-His, penta Hydrogen Thiophene Acetic acid Histidine]",RFU change (Correlation analysis),"[1]; Sodium alginate 5-0.019 mg/ml, 3 μM probe, probe-specific excitation λ, emission 545 nm",Increases
same,RFU change (Signal deviation with increasing [Carbohydrate]),"[1]; Sodium alginate 5-0.019 mg/ml, 3 μM probe, spectral analysis, Excitation 300-500, Emission 545",Increases
same,carbohydrate can be detected and/or differentiated by the LCO,"[1]; Sodium alginate, conclusion from change in signal magnitude and/or shift in λmax",can be detected and/or differentiated
same,Gradient Parameters (gradient of regression line),[1]; [7],199.9 ± 36.3
same,Linear relationship,[1]; [7],Significant
same,Quality of Gradient,[1]; [7],Positive
same,Sensitivity,[1]; to sodium alginate,Yes
same,RFU change (Correlation analysis),"[2]; Glycogen 5-0.019 mg/ml, 3 μM probe",Increases
same,RFU change (Signal deviation with increasing [Carbohydrate]),[2]; [8],Increases
same,λmax change,[2]; [8],Redshift
same,carbohydrate can be detected and/or differentiated by the LCO,"[2]; Glycogen, conclusion from change in signal magnitude and/or shift in λmax",can be detected and/or differentiated
same,RFU change (Correlation analysis),"[2]; Heparin 5-0.019 mg/ml, 3 μM probe",Unclear
same,RFU change (Signal deviation with increasing [Carbohydrate]),"[2]; Heparin 5-0.019 mg/ml, 3 μM probe, spectral analysis, Excitation 300-500, Emission 545",Decreases
same,Gradient Parameters (gradient of regression line),[2]; glycogen concentration vs RFU,130.6 ± 55.6
same,Linear relationship,[2]; glycogen concentration vs RFU,Significant
same,Quality of Gradient,[2]; glycogen concentration vs RFU,Positive
same,Gradient Parameters (gradient of regression line),[2]; heparin concentration vs RFU,26.3 ± 18.5
same,Linear relationship,[2]; heparin concentration vs RFU,Not Significant
same,Quality of Gradient,[2]; heparin concentration vs RFU,Horizontal
same,Sensitivity,[2]; to glycogen,Yes
same,Sensitivity,[2]; to heparin,No
same,RFU change (Correlation analysis),[3]; Cellulose 10-[…],Increase
same,RFU change (Signal deviation with increasing [Carbohydrate]),[3]; Cellulose 10-[…],Increase
same,λmax change,[3]; Cellulose 10-[…],Redshift
same,carbohydrate can be detected and/or differentiated by the LCO,[3]; Cellulose,can be detected and/or differentiated
same,RFU change (Correlation analysis),[3]; Chitin 10-[…],Increases
same,RFU change (Signal deviation with increasing [Carbohydrate]),[3]; Chitin 10-[…],Increases
same,λmax change,[3]; Chitin 10-[…],Redshift
same,carbohydrate can be detected and/or differentiated by the LCO,[3]; Chitin,can be detected and/or differentiated
same,Gradient Parameters (gradient of regression line),[3]; cellulose concentration vs RFU,725.9 ± 124.6
same,Linear relationship,[3]; cellulose concentration vs RFU,Significant
same,Quality of Gradient,[3]; cellulose concentration vs RFU,Positive
same,Gradient Parameters (gradient of regression line),[3]; chitin concentration vs RFU,117.2 ± 25.7
same,Linear relationship,[3]; chitin concentration vs RFU,Significant
same,Quality of Gradient,[3]; chitin concentration vs RFU,Positive
same,Sensitivity,[3]; to cellulose,Yes
same,Sensitivity,[3]; to chitin,Yes
same,Sensitivity,"[3]; to β-1,3-glucan",No
same,RFU change (Correlation analysis),"[3]; β-1,3-glucan 10-[…]",Unclear
same,RFU change (Signal deviation with increasing [Carbohydrate]),"[3]; β-1,3-glucan 10-[…]",Unclear
same,Gradient Parameters (gradient of regression line),[3]; [9],−7.071 ± 34
same,Quality of Gradient,[3]; [9],Horizontal
same,RFU change (Correlation analysis),"[4]; Chondroitin Sulfate A 5-0.019 mg/ml, 3 μM probe, probe-specific excitation λ, emission 545 nm",Increases
same,RFU change (Signal deviation with increasing [Carbohydrate]),[4]; [10],Increases
same,λmax change,[4]; [10],Blueshift
same,Gradient Parameters (gradient of regression line),[4]; [11],163.8 ± 20.77
same,Linear relationship,[4]; [11],Significant
same,Quality of Gradient,[4]; [11],Positive
same,carbohydrate can be detected and/or differentiated by the LCO,"[4]; Chondroitin sulfate A, conclusion from change in signal magnitude and/or shift in λmax",can be detected and/or differentiated
same,Sensitivity,[4]; to Chondroitin Sulfate A,Yes
same,RFU change (Correlation analysis),"[5]; Glucose 5-0.019 mg/ml, 3 μM probe, probe-specific excitation λ, emission 545 nm",Unclear
same,RFU change (Signal deviation with increasing [Carbohydrate]),"[5]; Glucose 5-0.019 mg/ml, 3 μM probe, spectral analysis, Excitation 300-500, Emission 545",Increases
same,Gradient Parameters (gradient of regression line),[5]; [12],33.2 ± 25.2
same,Quality of Gradient,[5]; [12],Horizontal
same,Sensitivity,[5]; to glucose,No
same,RFU change (Correlation analysis),"[6]; Amylose 5-0.019 mg/ml, 3 μM probe",Decreases
same,RFU change (Signal deviation with increasing [Carbohydrate]),"[6]; Amylose 5-0.019 mg/ml, 3 μM probe, spectral analysis, Excitation 300-500, Emission 545",Decreases
same,carbohydrate can be detected and/or differentiated by the LCO,"[6]; Amylose, conclusion from change in signal magnitude and/or shift in λmax",can be detected and/or differentiated
same,RFU change (Correlation analysis),"[6]; Cellulobiose 5-0.019 mg/ml, 3 μM probe",Unclear
same,RFU change (Signal deviation with increasing [Carbohydrate]),[6]; [13],Unclear
same,λmax change,[6]; [13],No change
same,Gradient Parameters (gradient of regression line),[6]; [14],−341.5 ± 47.3
same,Linear relationship,[6]; [14],Significant
same,Quality of Gradient,[6]; [14],Negative
same,Gradient Parameters (gradient of regression line),[6]; [15],−5.26 ± 4.87
same,Quality of Gradient,[6]; [15],Horizontal
same,Sensitivity,[6]; to amylose,Yes
same,Sensitivity,[6]; to cellulobiose,No
